Measurements: ChEMBL document CHEMBL3244049, “Synthesis and antibacterial activity of 1-hydroxy-1-methyl-1,3-dihydrofuro[3,4-b]quinoxaline 4,9-dioxide and related compounds” (1979)
Values after ≈ are worked out from the molar mass of the structure shown.

Assays:
Type in all cases: functional
Salmonella enterica [1] = experiment: Antibacterial activity against Salmonella choleraesuis infected in mouse assessed as protection from infection at 25 mg/kg, sc administered 0.5 hrs, 4 and 24 hrs post inoculation; conditions: route subcutaneous
Salmonella enterica [2] = experiment: Antibacterial activity against Salmonella choleraesuis infected in mouse assessed as protection from infection at 25 mg/kg, po administered 0.5 hrs, 4 and 24 hrs post inoculation
Pasteurella multocida [3] = experiment: Antibacterial activity against Pasteurella multocida infected in sc dosed mouse assessed as protection from infection compound administered 0.5 hrs, 4 and 24 hrs post inoculation; conditions: read-out: PD50
Pasteurella multocida [4] = experiment: Antibacterial activity against Pasteurella multocida infected in po dosed mouse assessed as protection from infection compound administered 0.5 hrs, 4 and 24 hrs post inoculation; conditions: read-out: PD50
Escherichia coli [5] = experiment: Antibacterial activity against Escherichia coli infected in sc dosed mouse assessed as protection from infection compound administered 0.5 hrs, 4 and 24 hrs post inoculation; conditions: read-out: PD50
Salmonella enterica [6] = experiment: Antibacterial activity against Salmonella choleraesuis infected in sc dosed mouse assessed as protection from infection compound administered 0.5 hrs, 4 and 24 hrs post inoculation; conditions: read-out: PD50
Escherichia coli [7] = experiment: Antibacterial activity against Escherichia coli infected in po dosed mouse assessed as protection from infection compound administered 0.5 hrs, 4 and 24 hrs post inoculation; conditions: read-out: PD50
Salmonella enterica [8] = experiment: Antibacterial activity against Salmonella choleraesuis infected in po dosed mouse assessed as protection from infection compound administered 0.5 hrs, 4 and 24 hrs post inoculation; conditions: read-out: PD50
Streptococcus pyogenes = experiment: Antibacterial activity against Streptococcus pyogenes
Pasteurella multocida [9] = experiment: Antibacterial activity against Pasteurella multocida
Salmonella enterica [10] = experiment: Antibacterial activity against Salmonella choleraesuis
Escherichia coli [11] = experiment: Antibacterial activity against Escherichia coli
[12] = tested on: Brachyspira hyodysenteriae; experiment: Antibacterial activity against Treponema hyodysenteriae after 72 hrs by dilution method

Work on `CCOC1(C)OCc2c1[n+]([O-])c1ccccc1[n+]2[O-]` (configuration not stated) yielded an Activity (Salmonella enterica [1]) of 50% and an Activity (Salmonella enterica [2]) of 70%.

For `CC1(OCc2ccccc2)OCc2c1[n+]([O-])c1ccccc1[n+]2[O-]` (configuration not stated), the Activity (Salmonella enterica [1]) was 60% and the Activity (Salmonella enterica [2]) was 40%.

`CC1(O)OCc2c1[n+]([O-])c1ccccc1[n+]2[O-]` (configuration not stated) showed an ED50 (Pasteurella multocida [3]) of 8.1 mg/kg, an ED50 (Pasteurella multocida [4]) of 11 mg/kg and an ED50 (Escherichia coli [5]) of 13 mg/kg. For the same compound, the ED50 (Salmonella enterica [6]) was 4.4 mg/kg, the Activity (Salmonella enterica [1]) was 100% and the Activity (Salmonella enterica [2]) was 100%. The ED50 (Escherichia coli [7]) was 14 mg/kg and the ED50 (Salmonella enterica [8]) was 6 mg/kg.

`COC(=O)N/N=C/c1c[n+]([O-])c2ccccc2[n+]1[O-]` [CARBADOX] was tested, and the ED50 (Pasteurella multocida [3]) was 18 mg/kg, the MIC (Streptococcus pyogenes) was 0.19 µg/mL (≈ 0.725 µM) and the MIC (Pasteurella multocida [9]) was 0.78 µg/mL (≈ 2.97 µM). The ED50 (Pasteurella multocida [4]) was 16 mg/kg, the MIC (Salmonella enterica [10]) was 0.19 µg/mL (≈ 0.725 µM) and the ED50 (Escherichia coli [5]) was 7 mg/kg. The ED50 (Salmonella enterica [6]) was 44 mg/kg, the Activity (Salmonella enterica [1]) was 40% and the MIC (Escherichia coli [11]) was 0.39 µg/mL (≈ 1.49 µM). For the same compound, the MIC [12] was 0.09 µg/mL (≈ 0.343 µM), the Activity (Salmonella enterica [2]) was 80% and the ED50 (Escherichia coli [7]) was 8.2 mg/kg. It also gave an ED50 (Salmonella enterica [8]) of 20 mg/kg.

`COC1(C)OCc2c1[n+]([O-])c1ccccc1[n+]2[O-]` (configuration not stated) showed an Activity (Salmonella enterica [1]) of 70% and an Activity (Salmonella enterica [2]) of 70%.
